The values that follow come from US8022225B2, “Triazole derivative” (Taisho Pharmaceutical Co., Ltd, priority 2004, dated 2011).

The target in assay [1] is T1, human Edg-1(S1P1) (Homo sapiens, UniProt P21453).
T1 construct: expressed in transfected cells; host or cells: HEK-293
Put plainly: Membrane system binding test: inhibition of [33P]-S1P binding to the membrane fraction of Edg-1(S1P1) gene transferred HEK-293 cells. Particulars: for inhibition at 10 µM: 10 μM compound, [33P]-S1P 0.1 nM, membrane fraction of Edg-1(S1P1) gene transferred HEK-293 cells, read-out: Membrane system binding test % inhibition (10 μM). Here is the method: The membrane fraction was obtained by treating the cells with a solubilizing buffer (1 mM Tris/HCl, pH 7.2) for 10 minutes on ice, centrifuging the system (1000×g, 5 min) to remove insoluble fractions, and then centrifuging the system (40000×g, 30 min, 4° C.). The resulting membrane fraction was dissolved in a binding buffer (20 mM Tris-HCl, pH 7.4, 100 mM NaCl, 15 mM NaF, 2 mM deoxypyridoxine, 4 mg/mL fatty acid-free BSA), and then [^33P]-S1P (produced by ARC, end concentration 0.1 nM) and a DMSO solution of the test compound (end concentration of the compound: 10^−5 M, end concentration of DMSO: 0.1%) were added, followed by stirring the mixture and subsequently treating it for 1 hour at 30° C. Using a harvester, the membrane fraction was harvested onto unifilter-96GF/C filter (produced by Perkin-Elmer). Then, the filter with the membrane fraction was washed 4 times with the binding buffer, and the filter was dried. To the filter, 25 μL Microscint 0 (produced by Perkin-Elmer) was added, and the assay system was measured for radioactivity by means of Top Count NXT (Packard). Based on the radioactivity, the amount (A) of binding of [^33P]-S1P to the membrane fraction upon addition of the compound was calculated.
The same procedure was performed in the absence of the test compound, and the amount (B) of binding of [^33P]-S1P was calculated. Moreover, the same procedure was performed in the absence of the test compound with the use of HEK-293 cells, to which the Edg-1(S1P1) gene had not been transferred, and the background amount (C) of binding of [^33P]-S1P was calculated.
The Edg-1(S1P1) binding inhibition rate of the compound, calculated from the following equation, is shown in […]

In assay [2] the target is T1, human Edg-1(S1P1). Briefly: Cell system binding test: inhibition of [3H]-S1P binding to Edg-1(S1P1) gene transferred HEK-293 cells. The settings on record: 10 μM compound, [3H]-S1P 10 nM, read-out: Cell system binding test % inhibition (10 μM). On the procedure: Cells (1×10^5 cells/well) obtained as described above were seeded in poly-L-lysine-coated 96-well plates (Corning Incorporated), and then incubated in a 5% carbon dioxide gas incubator for 12 hours at 37° C. with the use of an MEM medium (Invitrogen Corporation) containing 100 U/mL of penicillin, 100 μg/mL of streptomycin, a 1% MEM nonessential amino acid solution, and 10% FCS. […] After the cells were washed twice with the buffer, they were solubilized with 100 μL of Opti Phase Supermix (produced by Perkin-Elmer), and measured for radioactivity by means of Micro Beta (produced by Perkin-Elmer).
Inhibition rate(%)=[1−(A−C)/(B−C)]×100

T1 sequence (P21453 whole entry): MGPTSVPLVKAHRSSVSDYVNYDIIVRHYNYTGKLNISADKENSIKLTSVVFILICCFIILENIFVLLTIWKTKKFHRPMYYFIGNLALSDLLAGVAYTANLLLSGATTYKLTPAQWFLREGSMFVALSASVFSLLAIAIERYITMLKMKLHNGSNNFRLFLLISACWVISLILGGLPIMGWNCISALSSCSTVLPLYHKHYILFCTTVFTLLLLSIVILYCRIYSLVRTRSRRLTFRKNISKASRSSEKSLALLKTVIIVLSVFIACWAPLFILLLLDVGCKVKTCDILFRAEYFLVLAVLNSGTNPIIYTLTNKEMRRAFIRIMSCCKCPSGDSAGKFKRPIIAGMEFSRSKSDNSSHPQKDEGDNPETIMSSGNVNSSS

What is called inhibition is the drop in the measured response relative to a control, in per cent. Take `CCCSc1nnc([C@@H](C)NS(=O)(=O)c2ccc(Cl)cc2)n1CC` [Compound 2]: the inhibition at 10 µM was determined as 101% at human Edg-1(S1P1) [1] and 88.5% on human Edg-1(S1P1) [2].

In the case of `C=CCSc1nnc([C@@H](C)NS(=O)(=O)c2ccc(Cl)cc2)n1CC` [Compound 3], the figures for the inhibition at 10 µM at human Edg-1(S1P1) [1] and on human Edg-1(S1P1) [2] were 89.1% and 86.1%, respectively.

`C#CCSc1nnc([C@@H](C)NS(=O)(=O)c2ccc(Cl)cc2)n1CC` [Compound 4]: the inhibition at 10 µM on human Edg-1(S1P1) [1] turned out to be 101%; at human Edg-1(S1P1) [2], 86.8%.

As to `CCn1c(SCc2ccccc2)nnc1[C@@H](C)NS(=O)(=O)c1ccc(Cl)cc1` [Compound 5, N-{(1R)-1-[5-(benzylthio)-4-ethyl-4H-1,2,4-triazol-3-yl]ethyl}-4-chloro-benzenesulfonamide], the inhibition at 10 µM on human Edg-1(S1P1) [1] is 81.2%; on human Edg-1(S1P1) [2] it was 97.2%.

Turning to `CCn1c(SCc2ccc(-c3ccccc3)cc2)nnc1[C@@H](C)NS(=O)(=O)c1ccc(Cl)cc1` [Compound 6], the inhibition at 10 µM amounted to 99% on human Edg-1(S1P1) [1] and 94.3% on human Edg-1(S1P1) [2].

Consider `CCn1c(SCc2cccc(C#N)c2)nnc1[C@@H](C)NS(=O)(=O)c1ccc(Cl)cc1` [Compound 7], for which the figures for the inhibition at 10 µM at human Edg-1(S1P1) [1] and at human Edg-1(S1P1) [2] were 74.6% and 88.5%, respectively.

On to `CCn1c(SC2CCCCC2)nnc1[C@@H](C)NS(=O)(=O)c1ccc(Cl)cc1` [Compound 8], for which the results for the inhibition at 10 µM on human Edg-1(S1P1) [1] and at human Edg-1(S1P1) [2] were 85.6% and 83.9%, respectively.

On to `CCn1c(SC2CCCC2)nnc1[C@@H](C)NS(=O)(=O)c1ccc(Cl)cc1` [Compound 9], for which the inhibition at 10 µM at human Edg-1(S1P1) [1] came to 86.7%; at human Edg-1(S1P1) [2], 90.1%.

Take `CCn1c(SCC2CC2)nnc1[C@@H](C)NS(=O)(=O)c1ccc(Cl)cc1` [Compound 10]: the inhibition at 10 µM on human Edg-1(S1P1) [1] came out at 54.3%; at human Edg-1(S1P1) [2], 85.6%.

With `CCn1c(SCc2ccc(F)cc2)nnc1[C@@H](C)NS(=O)(=O)c1ccc(Cl)cc1` [Compound 11], the inhibition at 10 µM on human Edg-1(S1P1) [1] came to 45.1%; on human Edg-1(S1P1) [2], 85.5%.

For the compound `CCn1c(SCC2(c3ccc(Cl)cc3)CC2)nnc1[C@@H](C)NS(=O)(=O)c1ccc(Cl)cc1` [Compound 12], the inhibition at 10 µM at human Edg-1(S1P1) [1] amounted to 85.9%; on human Edg-1(S1P1) [2], 87.8%.

On to `CCn1c(SCC2CCOC2)nnc1[C@@H](C)NS(=O)(=O)c1ccc(Cl)cc1` (some centres unmarked) [Compound 13], for which the values for the inhibition at 10 µM at human Edg-1(S1P1) [1] and at human Edg-1(S1P1) [2] were 43.6% and 80.8%, respectively.

Take `C=CCCSc1nnc([C@@H](C)NS(=O)(=O)c2ccc(Cl)cc2)n1CC` [Compound 14]: the inhibition at 10 µM at human Edg-1(S1P1) [1] turned out to be 69.6%; at human Edg-1(S1P1) [2], 87%.

As to `CCn1c(SCCCC(F)(F)F)nnc1[C@@H](C)NS(=O)(=O)c1ccc(Cl)cc1` [Compound 15], the inhibition at 10 µM on human Edg-1(S1P1) [1] stood at 79.4%; on human Edg-1(S1P1) [2], 91%.

`CCn1c(SCCOC)nnc1[C@@H](C)NS(=O)(=O)c1ccc(Cl)cc1` [Compound 16]: the figures for the inhibition at 10 µM at human Edg-1(S1P1) [1] and on human Edg-1(S1P1) [2] were 64.4% and 92.1%, respectively.

Consider `CCC#CCSc1nnc([C@@H](C)NS(=O)(=O)c2ccc(Cl)cc2)n1CC` [Compound 17], for which the inhibition at 10 µM on human Edg-1(S1P1) [1] turned out to be 90.6%; at human Edg-1(S1P1) [2], 85.5%.

`CCn1c(SCCCC#Cc2ccccc2)nnc1[C@@H](C)NS(=O)(=O)c1ccc(Cl)cc1` [Compound 18]: the inhibition at 10 µM at human Edg-1(S1P1) [1] was 100%; at human Edg-1(S1P1) [2], 84.8%.

`CCn1c(SCCc2ccc(Cl)cc2)nnc1[C@@H](C)NS(=O)(=O)c1ccc(Cl)cc1` [Compound 19]: the inhibition at 10 µM on human Edg-1(S1P1) [1] came out at 100%; on human Edg-1(S1P1) [2] it was 82.5%.

On to `CCCC(CCC)Sc1nnc([C@@H](C)NS(=O)(=O)c2ccc(Cl)cc2)n1CC` [Compound 20], for which the inhibition at 10 µM on human Edg-1(S1P1) [1] was found to be 74.3%; on human Edg-1(S1P1) [2] it was 84.3%.

Consider `C/C=C/CSc1nnc([C@@H](C)NS(=O)(=O)c2ccc(Cl)cc2)n1CC` [Compound 21], for which the inhibition at 10 µM at human Edg-1(S1P1) [1] is 74.8%; at human Edg-1(S1P1) [2], 82.2%.

As for `CCn1c(SCc2cccc(C)c2)nnc1[C@@H](C)NS(=O)(=O)c1ccc(Cl)cc1` [Compound 22], the results for the inhibition at 10 µM at human Edg-1(S1P1) [1] and at human Edg-1(S1P1) [2] were 96.9% and 82.1%, respectively.

For the compound `CCn1c(SCCOc2ccccc2)nnc1[C@@H](C)NS(=O)(=O)c1ccc(Cl)cc1` [Compound 23], the results for the inhibition at 10 µM at human Edg-1(S1P1) [1] and on human Edg-1(S1P1) [2] were 95% and 84.4%, respectively.

As for `CCn1c(SCC(=O)OC)nnc1[C@@H](C)NS(=O)(=O)c1ccc(Cl)cc1` [Compound 24], the inhibition at 10 µM came to 60.6% at human Edg-1(S1P1) [1] and 82.6% at human Edg-1(S1P1) [2].

Consider `CCn1c(SCC2CCCCC2)nnc1[C@@H](C)NS(=O)(=O)c1ccc(Cl)cc1` [Compound 25], for which the inhibition at 10 µM was determined as 77.8% at human Edg-1(S1P1) [1] and 81.5% on human Edg-1(S1P1) [2].

Regarding `CCn1c(SCCSC)nnc1[C@@H](C)NS(=O)(=O)c1ccc(Cl)cc1` [Compound 26], the values for the inhibition at 10 µM at human Edg-1(S1P1) [1] and on human Edg-1(S1P1) [2] were 61.1% and 84%, respectively.

Take `CC#CCSc1nnc([C@@H](C)NS(=O)(=O)c2ccc(Cl)cc2)n1CC` [Compound 27]: the inhibition at 10 µM is 76% on human Edg-1(S1P1) [1] and 86.9% at human Edg-1(S1P1) [2].

Turning to `CCn1c(SCC=C(C)C)nnc1[C@@H](C)NS(=O)(=O)c1ccc(Cl)cc1` [Compound 28], the inhibition at 10 µM on human Edg-1(S1P1) [1] was found to be 82.8%; on human Edg-1(S1P1) [2], 93.1%.

For `CCCCSc1nnc([C@@H](C)NS(=O)(=O)c2ccc(Cl)cc2)n1CC` [Compound 29], the inhibition at 10 µM on human Edg-1(S1P1) [1] was found to be 95.9%; on human Edg-1(S1P1) [2], 93%.

`CCCCCCCCSc1nnc([C@@H](C)NS(=O)(=O)c2ccc(Cl)cc2)n1CC` [Compound 30]: the inhibition at 10 µM came to 100% on human Edg-1(S1P1) [1] and 91.9% at human Edg-1(S1P1) [2].

On to `CCn1c(SCC2CCO2)nnc1[C@@H](C)NS(=O)(=O)c1ccc(Cl)cc1` (some centres unmarked) [Compound 31], for which the inhibition at 10 µM at human Edg-1(S1P1) [1] was 90%; on human Edg-1(S1P1) [2], 90.2%.

Turning to `CCn1c(SCc2ccccc2C)nnc1[C@@H](C)NS(=O)(=O)c1ccc(Cl)cc1` [Compound 32], the inhibition at 10 µM on human Edg-1(S1P1) [1] was found to be 99.1%; on human Edg-1(S1P1) [2] it was 89.1%.

For `CCn1c(SCC(C)C)nnc1[C@@H](C)NS(=O)(=O)c1ccc(Cl)cc1` [Compound 33], the inhibition at 10 µM on human Edg-1(S1P1) [1] was found to be 90%; on human Edg-1(S1P1) [2] it was 91.7%.

Turning to `CCn1c(SCC2CCC2)nnc1[C@@H](C)NS(=O)(=O)c1ccc(Cl)cc1` [Compound 34], the figures for the inhibition at 10 µM at human Edg-1(S1P1) [1] and at human Edg-1(S1P1) [2] were 76.4% and 91.5%, respectively.

`CCn1c(SCC2CCCCCCC2)nnc1[C@@H](C)NS(=O)(=O)c1ccc(Cl)cc1` [Compound 35]: the values for the inhibition at 10 µM on human Edg-1(S1P1) [1] and on human Edg-1(S1P1) [2] were 87.7% and 91.9%, respectively.

Consider `CCn1c(SC2CCc3ccccc3C2)nnc1[C@@H](C)NS(=O)(=O)c1ccc(Cl)cc1` (some centres unmarked) [Compound 36], for which the inhibition at 10 µM on human Edg-1(S1P1) [1] came out at 104%; on human Edg-1(S1P1) [2] it was 89.5%.

As to `CCn1c(SCCOCc2ccccc2)nnc1[C@@H](C)NS(=O)(=O)c1ccc(Cl)cc1` [Compound 37], the inhibition at 10 µM on human Edg-1(S1P1) [1] was determined as 92.8%; at human Edg-1(S1P1) [2] it was 92.7%.

Turning to `CCn1c(SC/C=C/c2ccccc2)nnc1[C@@H](C)NS(=O)(=O)c1ccc(Cl)cc1` [Compound 38], the values for the inhibition at 10 µM on human Edg-1(S1P1) [1] and at human Edg-1(S1P1) [2] were 81% and 91.5%, respectively.

As for `CCn1c(SCCCc2ccccc2)nnc1[C@@H](C)NS(=O)(=O)c1ccc(Cl)cc1` [Compound 39], the inhibition at 10 µM is 86.7% at human Edg-1(S1P1) [1] and 93.8% at human Edg-1(S1P1) [2].

As usually defined, the Kd is the equilibrium constant for the complex coming apart. As to `CCCCCCCCCCCCC/C=C\C(O)C(N)COP(=O)(O)O` (centres unmarked) [[^33P]-S1P, reference compound], the dissociation constant Kd at human Edg-1(S1P1) [1] (radioligand binding, membrane fraction, read-out: Kd of binding to human Edg-1(S1P1) gene transferred HEK-293 cell strain membrane fraction) amounted to 150 pM.
